pIC50, pKd: −log10 of the molar value. Where two headings read alike, the source gives them in different places.
Columns and labels:
3D7 PFLDH [1] = system: 3D7 PFLDH; parameters: method as in F.J. Gamo et al., Nature 2010; concentration or dose not given beside the values; conditions: downloaded from ChEMBL, ref F.J. Gamo et al., Nature 2010; cited from earlier work
LOC100128443 = experiment: biochemical; parameters: species or system human, K562 (extract); replicate k of n = 2 (each experiment ID is one independent experiment; two experiment IDs per compound); conditions: human; read-out: KDapp
ABL1 = experiment: biochemical; parameters: species or system human, K562 (extract); replicate k of n = 2 (each experiment ID is one independent experiment; two experiment IDs per compound); conditions: human; read-out: KDapp
KIT = KIT (Homo sapiens, UniProt P10721); experiment: biochemical
PRKACA = PRKACA (Homo sapiens, UniProt P17612); experiment: biochemical
BMX = BMX (Homo sapiens, UniProt P51813); experiment: biochemical
STK38L = STK38L (Homo sapiens, UniProt Q9Y2H1); experiment: biochemical
MAPKAPK3 = MAPKAPK3 (Homo sapiens, UniProt Q16644); experiment: biochemical
PIK3C3 = PIK3C3 (Homo sapiens, UniProt Q8NEB9); experiment: biochemical
3D7 PFLDH [2] = system: 3D7 PFLDH; parameters: method as in F.J. Gamo et al., Nature 2010; conditions: downloaded from ChEMBL ref F.J. Gamo et al., Nature 2010; cited from earlier work
DD2 = system: DD2; parameters: method as in F.J. Gamo et al., Nature 2010; conditions: P. falciparum Dd2; downloaded from ChEMBL ref F.J. Gamo et al., Nature 2010; cited from earlier work
TNK2 = TNK2 (Homo sapiens, UniProt Q07912); experiment: Kinobead competition assay in K562 extract: TNK2
Experimental: Kinobeads were prepared as described [25, 26]. […] Briefly, Kinobeads were washed and equilibrated in lysis buffer (50 mM Tris-Cl, pH 7.4, 0.4% Igepal-CA630, 1.5 mM MgCl2, 5% Glycerol, 150 mM NaCl, 25 mM NaF, 1 mM Na3VO4, 1 mM DTT, and 1 complete EDTA-free protease inhibitor tablet (Roche) per 25 ml). […] Digestion, labeling with TMT isobaric mass tags, peptide fractionation, and mass spectrometric analyses were performed essentially as described [27]. Criteria for protein quantification were: a minimum of 2 sequence assignments matching to unique peptides was required (FDR for quantified proteins <<0.1%), Mascot ion score > 15, signal to background ratio of the precursor ion > 4, signal to interference > 0.5 [28]. Reporter ion intensities were multiplied by ion accumulation time, yielding an area value proportional to the number of reporter ions present in the mass analyzer. Peptide fold changes were corrected for isotope purity as described and adjusted for interference caused by co-eluting nearly isobaric peaks as estimated by the signal-to-interference measure [29]. Protein quantification was achieved using a sum-based bootstrap algorithm [30]. Apparent dissociation constants were determined by taking into account the protein depletion by the beads as described [27].
Kinobeads were incubated with K562 cell extract either in the presence of vehicle (DMSO) or TCAMS compound, respectively (20 μM-0.03 μM). Protein kinases captured by the beads (140–150 kinases per experiment) were quantified following tryptic digestion, isobaric peptide tagging, and LC-MS/MS analysis. Kinases were identified as potential targets by virtue of their reduced capture in the presence of excess TCAMS compounds. Apparent dissociation constants (Kd’s) were calculated from the extent to which capture of each kinase was reduced at each compound concentration.

ILK = ILK (Homo sapiens, UniProt Q13418); experiment: biochemical
HIPK1 = HIPK1 (Homo sapiens, UniProt Q86Z02); experiment: biochemical
HIPK2 = HIPK2 (Homo sapiens, UniProt Q9H2X6); experiment: biochemical
PLK1 = PLK1 (Homo sapiens, UniProt P53350); experiment: biochemical
LRRK2 = LRRK2 (Homo sapiens, UniProt Q5S007); experiment: biochemical
PRKCI = PRKCI (Homo sapiens, UniProt P41743); experiment: biochemical
ARAF = ARAF (Homo sapiens, UniProt P10398); experiment: biochemical
TAOK1 = TAOK1 (Homo sapiens, UniProt Q7L7X3); experiment: biochemical
RPS6KB1 = RPS6KB1 (Homo sapiens, UniProt P23443); experiment: biochemical
[3] = TNK2, K-562 extract, conc. series 20.0-0.0uM, channel assignment not given

TNK2, sequence (Q07912 whole entry): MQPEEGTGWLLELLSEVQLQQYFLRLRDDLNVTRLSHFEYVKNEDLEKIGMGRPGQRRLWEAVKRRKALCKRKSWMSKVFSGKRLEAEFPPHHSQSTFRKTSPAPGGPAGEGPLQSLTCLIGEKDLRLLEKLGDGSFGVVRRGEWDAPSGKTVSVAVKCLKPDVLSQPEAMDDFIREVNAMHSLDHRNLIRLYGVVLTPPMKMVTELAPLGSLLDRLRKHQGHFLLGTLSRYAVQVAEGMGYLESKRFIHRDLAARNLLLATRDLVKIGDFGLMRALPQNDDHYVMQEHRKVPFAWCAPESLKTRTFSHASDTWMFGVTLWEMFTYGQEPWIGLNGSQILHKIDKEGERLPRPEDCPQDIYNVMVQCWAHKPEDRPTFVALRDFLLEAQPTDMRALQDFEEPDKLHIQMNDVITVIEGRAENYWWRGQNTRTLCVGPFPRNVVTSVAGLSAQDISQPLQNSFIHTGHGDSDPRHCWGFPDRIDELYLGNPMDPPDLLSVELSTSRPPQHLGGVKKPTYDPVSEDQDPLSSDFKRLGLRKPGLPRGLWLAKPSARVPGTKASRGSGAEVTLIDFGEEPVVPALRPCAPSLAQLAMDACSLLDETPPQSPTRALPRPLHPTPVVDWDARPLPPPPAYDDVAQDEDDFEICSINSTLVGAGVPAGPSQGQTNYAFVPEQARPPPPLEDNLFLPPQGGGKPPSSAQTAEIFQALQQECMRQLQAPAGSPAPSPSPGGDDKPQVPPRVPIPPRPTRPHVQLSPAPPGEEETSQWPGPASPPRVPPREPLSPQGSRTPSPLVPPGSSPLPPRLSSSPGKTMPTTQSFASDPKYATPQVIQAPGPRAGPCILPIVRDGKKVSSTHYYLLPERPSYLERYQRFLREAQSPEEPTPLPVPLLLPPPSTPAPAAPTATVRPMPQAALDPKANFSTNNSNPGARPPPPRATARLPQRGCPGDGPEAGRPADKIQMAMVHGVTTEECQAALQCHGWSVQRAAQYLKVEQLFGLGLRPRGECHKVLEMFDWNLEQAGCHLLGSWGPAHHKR
RPS6KB1, sequence (P23443 whole entry): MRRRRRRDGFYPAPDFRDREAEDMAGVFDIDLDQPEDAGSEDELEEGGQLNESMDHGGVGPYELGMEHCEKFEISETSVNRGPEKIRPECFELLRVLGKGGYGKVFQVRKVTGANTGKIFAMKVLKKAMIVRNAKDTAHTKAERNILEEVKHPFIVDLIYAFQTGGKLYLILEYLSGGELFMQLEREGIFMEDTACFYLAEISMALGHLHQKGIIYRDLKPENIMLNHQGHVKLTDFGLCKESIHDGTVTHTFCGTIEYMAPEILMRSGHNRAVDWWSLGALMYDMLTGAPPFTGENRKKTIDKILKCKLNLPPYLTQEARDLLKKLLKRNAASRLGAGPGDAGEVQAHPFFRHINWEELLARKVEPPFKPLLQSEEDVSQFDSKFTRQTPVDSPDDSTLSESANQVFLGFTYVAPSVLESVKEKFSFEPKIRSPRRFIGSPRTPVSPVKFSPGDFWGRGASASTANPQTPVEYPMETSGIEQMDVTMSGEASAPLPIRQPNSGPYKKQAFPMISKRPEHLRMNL
ILK, sequence (Q13418 whole entry): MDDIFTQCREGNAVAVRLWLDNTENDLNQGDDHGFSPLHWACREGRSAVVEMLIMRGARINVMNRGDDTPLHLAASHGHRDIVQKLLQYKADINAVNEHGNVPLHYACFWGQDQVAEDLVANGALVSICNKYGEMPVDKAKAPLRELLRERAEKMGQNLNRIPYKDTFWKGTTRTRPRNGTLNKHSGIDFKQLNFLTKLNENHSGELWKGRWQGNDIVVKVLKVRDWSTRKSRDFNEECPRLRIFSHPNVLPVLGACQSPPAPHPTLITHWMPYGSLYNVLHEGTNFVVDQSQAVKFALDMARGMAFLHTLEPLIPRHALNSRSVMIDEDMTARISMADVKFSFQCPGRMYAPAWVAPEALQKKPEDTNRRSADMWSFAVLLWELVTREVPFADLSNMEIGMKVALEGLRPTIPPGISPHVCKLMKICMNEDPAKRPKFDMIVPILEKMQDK
PIK3C3, sequence (Q8NEB9 whole entry): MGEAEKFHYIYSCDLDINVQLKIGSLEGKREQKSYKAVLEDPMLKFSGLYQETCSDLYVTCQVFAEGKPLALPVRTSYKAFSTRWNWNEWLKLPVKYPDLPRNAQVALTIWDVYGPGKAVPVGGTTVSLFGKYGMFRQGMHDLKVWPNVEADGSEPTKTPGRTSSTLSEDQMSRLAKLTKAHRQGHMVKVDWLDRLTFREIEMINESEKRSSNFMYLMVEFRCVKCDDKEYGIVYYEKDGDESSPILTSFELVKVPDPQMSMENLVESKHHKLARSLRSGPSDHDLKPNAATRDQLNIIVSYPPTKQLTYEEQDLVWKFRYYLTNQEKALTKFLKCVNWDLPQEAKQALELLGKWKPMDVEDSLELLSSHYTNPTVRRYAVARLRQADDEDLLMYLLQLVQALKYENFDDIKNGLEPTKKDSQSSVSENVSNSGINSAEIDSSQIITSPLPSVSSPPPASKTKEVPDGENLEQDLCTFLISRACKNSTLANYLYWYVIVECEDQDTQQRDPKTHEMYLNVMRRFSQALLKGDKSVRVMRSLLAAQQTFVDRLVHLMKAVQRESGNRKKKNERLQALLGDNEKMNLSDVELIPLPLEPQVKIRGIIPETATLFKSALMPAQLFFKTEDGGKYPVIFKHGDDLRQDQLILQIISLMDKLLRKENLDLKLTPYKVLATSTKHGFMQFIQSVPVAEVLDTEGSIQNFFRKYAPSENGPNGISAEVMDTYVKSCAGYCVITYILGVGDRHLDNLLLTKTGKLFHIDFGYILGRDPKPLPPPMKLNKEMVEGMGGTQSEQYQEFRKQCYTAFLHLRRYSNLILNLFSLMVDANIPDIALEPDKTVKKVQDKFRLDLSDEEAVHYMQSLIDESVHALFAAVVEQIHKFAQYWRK
STK38L, sequence (Q9Y2H1 whole entry): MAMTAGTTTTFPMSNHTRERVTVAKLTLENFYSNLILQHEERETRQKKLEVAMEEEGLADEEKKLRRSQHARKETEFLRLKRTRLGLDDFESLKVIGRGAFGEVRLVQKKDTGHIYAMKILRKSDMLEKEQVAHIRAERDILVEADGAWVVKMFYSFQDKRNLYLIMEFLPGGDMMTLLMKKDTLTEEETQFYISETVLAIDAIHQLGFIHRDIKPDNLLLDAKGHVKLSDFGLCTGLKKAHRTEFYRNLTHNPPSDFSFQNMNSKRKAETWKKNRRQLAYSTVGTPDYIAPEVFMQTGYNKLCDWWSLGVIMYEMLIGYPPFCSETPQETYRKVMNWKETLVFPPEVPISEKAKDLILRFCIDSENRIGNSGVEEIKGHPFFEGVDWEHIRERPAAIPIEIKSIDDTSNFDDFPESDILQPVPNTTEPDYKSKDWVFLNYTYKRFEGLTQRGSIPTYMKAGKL
BMX, sequence (P51813 whole entry): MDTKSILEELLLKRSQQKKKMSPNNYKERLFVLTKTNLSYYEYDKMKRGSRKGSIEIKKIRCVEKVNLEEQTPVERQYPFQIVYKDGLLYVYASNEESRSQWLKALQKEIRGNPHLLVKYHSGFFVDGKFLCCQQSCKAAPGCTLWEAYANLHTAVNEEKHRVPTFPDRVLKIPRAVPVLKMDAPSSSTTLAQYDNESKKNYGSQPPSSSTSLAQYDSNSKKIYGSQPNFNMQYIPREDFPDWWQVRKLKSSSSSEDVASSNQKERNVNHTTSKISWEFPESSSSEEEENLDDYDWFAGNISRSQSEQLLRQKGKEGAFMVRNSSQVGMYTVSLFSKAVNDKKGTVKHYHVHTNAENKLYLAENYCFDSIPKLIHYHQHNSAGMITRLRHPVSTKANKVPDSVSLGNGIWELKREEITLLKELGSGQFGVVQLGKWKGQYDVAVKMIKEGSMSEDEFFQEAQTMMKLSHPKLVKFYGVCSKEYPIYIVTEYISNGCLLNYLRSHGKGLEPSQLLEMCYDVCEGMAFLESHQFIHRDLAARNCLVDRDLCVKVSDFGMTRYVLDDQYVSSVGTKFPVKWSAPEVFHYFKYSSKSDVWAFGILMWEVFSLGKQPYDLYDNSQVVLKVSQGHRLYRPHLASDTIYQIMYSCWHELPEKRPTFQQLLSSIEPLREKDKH
ARAF, sequence (P10398 whole entry): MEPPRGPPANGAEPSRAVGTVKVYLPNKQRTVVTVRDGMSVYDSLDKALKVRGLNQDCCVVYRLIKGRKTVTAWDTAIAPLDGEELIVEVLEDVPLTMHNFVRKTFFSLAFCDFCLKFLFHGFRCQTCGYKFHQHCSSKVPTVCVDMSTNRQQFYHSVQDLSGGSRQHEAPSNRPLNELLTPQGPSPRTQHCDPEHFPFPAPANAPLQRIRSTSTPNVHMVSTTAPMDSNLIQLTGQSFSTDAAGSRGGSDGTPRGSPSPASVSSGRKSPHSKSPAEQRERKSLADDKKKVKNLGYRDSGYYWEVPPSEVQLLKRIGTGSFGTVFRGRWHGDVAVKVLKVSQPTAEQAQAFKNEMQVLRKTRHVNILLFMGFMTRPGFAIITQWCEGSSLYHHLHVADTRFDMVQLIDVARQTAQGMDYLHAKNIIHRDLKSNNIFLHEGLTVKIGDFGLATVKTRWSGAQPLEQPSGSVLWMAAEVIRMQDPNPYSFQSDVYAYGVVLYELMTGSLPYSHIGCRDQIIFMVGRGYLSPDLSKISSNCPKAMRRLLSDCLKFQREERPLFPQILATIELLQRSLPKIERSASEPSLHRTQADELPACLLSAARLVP
MAPKAPK3, sequence (Q16644 whole entry): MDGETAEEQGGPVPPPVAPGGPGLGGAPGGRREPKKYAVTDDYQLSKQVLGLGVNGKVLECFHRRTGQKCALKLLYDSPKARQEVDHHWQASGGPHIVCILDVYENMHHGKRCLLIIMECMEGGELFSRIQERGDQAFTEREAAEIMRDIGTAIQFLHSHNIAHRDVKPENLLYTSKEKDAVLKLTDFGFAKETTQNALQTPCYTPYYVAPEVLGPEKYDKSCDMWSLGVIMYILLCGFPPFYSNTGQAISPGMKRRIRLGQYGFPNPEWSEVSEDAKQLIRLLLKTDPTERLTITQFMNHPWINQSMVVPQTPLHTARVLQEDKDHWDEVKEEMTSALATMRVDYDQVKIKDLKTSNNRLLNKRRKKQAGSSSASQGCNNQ

Structure (SMILES): CN1CCN(c2ccc(Nc3ncc(C#N)c(Nc4ccccc4C(N)=O)n3)cc2)CC1.Cl [TCMDC-134116]
- PCT_INHIB_3D7_PFLDH (3D7 PFLDH [1]): 0%
- pKd (LOC100128443): 6.70
- pKd (ABL1): 7.23
- pIC50 (KIT): 5.89
- pIC50 (PRKACA): 5.82
- pIC50 (BMX): 6.21
- pIC50 (STK38L): 6.22
- pIC50 (MAPKAPK3): < 4.70
- pIC50 (PIK3C3): 5.96

Structure (SMILES): Cl.NCC1(c2nc(-c3ccc(Cl)c(O)c3)c(-c3ccncc3)[nH]2)CCCCC1 [TCMDC-141154]
- PCT_INHIB_3D7_PFLDH (3D7 PFLDH [2]): 0
- PCT_INHB_DD2 (DD2): 98
- pIC50 (TNK2): < 4.70
- abundance relative to vehicle TMT126 (TNK2; TNK2, K-562 extract, conc. series 20.0, 4.0, 0.8, 0.16, 0.032, 0.0uM, channel assignment not given): 0.90
- abundance relative to vehicle TMT127L (TNK2; [3]): 1.02
- abundance relative to vehicle TMT128H (TNK2; [3]): 1.06
- abundance relative to vehicle TMT129L (TNK2; [3]): 1.03
- abundance relative to vehicle TMT130H (TNK2; [3]): 1.20
- Hill (TNK2; TNK2, kinobead competition curve): 1
- pIC50 (ILK): < 4.70
- pIC50 (HIPK1): < 4.70
- pIC50 (HIPK2): < 4.70
- pIC50 (PLK1): < 4.70
- pIC50 (LRRK2): < 4.70

Structure (SMILES): CN(C)CC(O)COc1ccc(Nc2ncc([N+](=O)[O-])c(Nc3ccccc3O)n2)cc1.O=C(O)C(F)(F)F (stereo not drawn) [TCMDC-141399]
- pIC50 (PRKCI): < 4.70
- pIC50 (ARAF): < 4.70
- pIC50 (TAOK1): 5.21
- pIC50 (RPS6KB1): < 4.70

Source: PMC4774911, “Biochemical Screening of Five Protein Kinases from Plasmodium falciparum against 14,000 Cell-Active Compounds” (PLoS ONE, 2016)
